Measurements as given in ChEMBL document CHEMBL4421722, “Inhibitors of protein prenyltransferases” (2013).

organism: Rattus norvegicus; assay: Inhibition of rat recombinant geranylgeranyltransferase type I expressed in Escherichia coli assessed as residual enzyme activity for geranylgeranylation of K-Ras4B at 50 uM incubated for 30 mins in presence of [3H]GGPP by scintillation counting assay relative to control

Row | Activity [%] | Compound
1 | 84.6 | CCS[C@@H]1C[C@@H](c2ccc(CC)cc2)N(S(=O)(=O)c2ccc(C)cc2)C[C@H]1C(=O)O
2 | 110 | COc1ccc(S[C@@H]2C[C@@H](c3cc(OC)c(OC)c(OC)c3)N(S(=O)(=O)c3ccc(C)cc3)C[C@H]2C(=O)O)cc1
3 | 110 | COc1ccc([C@@H]2CC=C(C(C)=O)CN2S(=O)(=O)c2ccccc2)cc1
4 | 53 | Cc1ccc([C@H]2C(C(=O)O)=CC[C@@H](c3ccc(C)cc3)N2S(=O)(=O)c2ccc(Cl)cc2)cc1
5 | 77.6 | Cc1ccc([C@@H]2C[C@@H](SCCC(C)C)[C@H](C(=O)O)CN2S(=O)(=O)c2ccc(Cl)cc2)cc1
6 | 64.5 | COC(=O)c1ccccc1S(=O)(=O)N1[C@@H](c2cccc(F)c2)C(C(=O)O)=CC[C@H]1c1ccc(C)cc1
7 | 78.4 | COc1ccc(S[C@@H]2C[C@@H](c3ccc(C)cc3)N(S(=O)(=O)c3ccc(C)cc3)C[C@H]2C(=O)O)cc1
8 | 62.3 | Cc1ccc([C@@H]2CC=C(C(=O)O)[C@H](c3cccc(Cl)c3)N2S(=O)(=O)c2ccccc2C)cc1
9 | 74.8 | Cc1ccc(S[C@@H]2C[C@@H](c3ccc(Cl)cc3)N(S(=O)(=O)c3ccccc3C)C[C@H]2C(=O)O)cc1
10 | 114 | CCCCS[C@@H]1C[C@@H](c2ccc(OC)c(OC)c2)N(S(=O)(=O)c2ccc(C)cc2)C[C@H]1C(=O)O
11 | 80.4 | Cc1ccc(S[C@@H]2C[C@@H](c3ccccc3F)N(S(=O)(=O)c3ccc(C)cc3)C[C@H]2C(=O)O)cc1
12 | 108 | C=CCS[C@@H]1C[C@@H](c2ccc(OC)cc2)N(S(=O)(=O)c2ccc(C)cc2)C[C@H]1C(=O)O
13 | 44.9 | COc1cc([C@@H]2C[C@@H](SCc3ccc(Cl)cc3)[C@H](C(=O)O)CN2S(=O)(=O)c2ccc(C)cc2)cc(OC)c1OC
14 | 63.5 | Cc1ccc(S(=O)(=O)N2[C@@H](c3ccc(Cl)cc3)C(C(=O)O)=CC[C@H]2c2cccc(F)c2)cc1
15 | 105 | CC(=O)C1=CC[C@@H](c2cccc(Br)c2)N(S(=O)(=O)c2ccc(C)cc2)C1
16 | 44.1 | COc1ccc([C@@H]2C[C@@H](SCc3ccc(C(C)(C)C)cc3)[C@H](C(=O)O)CN2S(=O)(=O)c2ccc(C)cc2)cc1
17 | 93.3 | COc1ccc(S[C@@H]2C[C@@H](c3cccc(Cl)c3)N(S(=O)(=O)c3ccc(C)cc3)C[C@H]2C(=O)O)cc1
18 | 99 | COc1ccc(S[C@@H]2C[C@@H](c3ccc(C)cc3)N(S(=O)(=O)c3ccccc3C)C[C@H]2C(=O)O)cc1
19 | 80.5 | CCCCCCS[C@@H]1C[C@@H](c2cccc(OC)c2)N(S(=O)(=O)c2ccc(C)cc2)C[C@H]1C(=O)O
20 | 71.9 | CCc1ccc([C@@H]2C[C@@H](SCCC(C)C)[C@H](C(=O)O)CN2S(=O)(=O)c2ccc(C)cc2)cc1
21 | 89.8 | CCc1ccc([C@@H]2CC=C(C(=O)O)[C@H](c3ccc(Cl)cc3)N2S(=O)(=O)c2ccc(C)cc2)cc1
22 | 43.1 | Cc1ccccc1S(=O)(=O)N1C[C@@H](C(=O)O)[C@H](SCc2ccc(C(C)(C)C)cc2)C[C@H]1c1ccc(Cl)cc1
23 | 33.9 | COc1ccc([C@@H]2C[C@@H](SCc3ccccc3)[C@H](C(=O)O)CN2S(=O)(=O)c2ccccc2C)cc1
24 | 71.9 | Cc1ccc(S(=O)(=O)N2C[C@@H](C(=O)O)[C@H](SCc3ccc(C(C)(C)C)cc3)C[C@H]2c2ccccc2F)cc1
25 | 51 | Cc1ccc([C@@H]2C[C@@H](SCC(C)C)[C@H](C(=O)O)CN2S(=O)(=O)c2ccccc2)cc1
26 | 71.3 | Cc1ccc(S(=O)(=O)N2[C@@H](c3cccc(Cl)c3)C(C(=O)O)=CC[C@H]2c2ccccc2)cc1

Row | Activity [%] | Compound
27 | 87 | CCc1ccc([C@@H]2C[C@@H](SC3CCCC3)[C@H](C(=O)O)CN2S(=O)(=O)c2ccc(C)cc2)cc1
28 | 66.8 | Cc1ccc(S(=O)(=O)N2[C@@H](c3ccc(F)cc3)C(C(=O)O)=CC[C@H]2c2ccc(F)cc2)cc1
29 | 65.4 | CCOc1ccc([C@@H]2C[C@@H](Sc3ccc(C)cc3)[C@H](C(=O)O)CN2S(=O)(=O)c2ccc(C)cc2)cc1
30 | 99 | COc1ccc(S[C@@H]2C[C@@H](c3ccc(C)cc3)N(S(C)(=O)=O)C[C@H]2C(=O)O)cc1
31 | 76.4 | C=CCS[C@@H]1C[C@@H](c2ccc3c(c2)OCO3)N(S(=O)(=O)c2ccc(C)cc2)C[C@H]1C(=O)O
32 | 93.1 | Cc1ccc([C@@H]2C[C@@H](SCc3ccccc3)[C@H](C(=O)O)CN2S(=O)(=O)c2ccc(C)cc2)cc1
33 | 66.1 | COc1ccc([C@@H]2CC=C(C(=O)O)[C@H](c3cccc(Cl)c3)N2S(=O)(=O)c2ccccc2C)cc1
34 | 92.1 | Cc1ccc(S(=O)(=O)N2C[C@@H](C(=O)O)[C@H](SCc3ccccc3)C[C@H]2c2ccccc2)cc1
35 | 79.7 | COc1ccc([C@@H]2C[C@@H](SCC(C)C)[C@H](C(=O)O)CN2S(=O)(=O)c2ccccc2C)cc1
36 | 72.8 | CCCS[C@@H]1C[C@@H](c2ccc(OC)cc2)N(S(=O)(=O)c2ccc(Cl)cc2)C[C@H]1C(=O)O
37 | 60.4 | Cc1ccc(S(=O)(=O)N2[C@@H](c3ccc(Cl)cc3)C(C(=O)O)=CC[C@H]2c2cccc(Cl)c2)cc1
38 | 100 | COc1ccc(S[C@@H]2C[C@@H](c3ccccc3F)N(S(=O)(=O)c3ccc(C)cc3)C[C@H]2C(=O)O)cc1
39 | 99 | CC(=O)C1=CC[C@@H](c2ccc(C)cc2)N(S(=O)(=O)c2ccccc2)C1
40 | 75.2 | Cc1ccc([C@@H]2C[C@@H](SCCC(C)C)[C@H](C(=O)O)CN2S(=O)(=O)c2ccccc2C)cc1
41 | 68.1 | Cc1ccc([C@@H]2CC=C(C(=O)O)[C@H](c3ccc(Br)cc3)N2S(=O)(=O)c2ccc(C)cc2)cc1
42 | 62.8 | Cc1ccc(S(=O)(=O)N2[C@@H](c3cccc(C)c3)C(C(=O)O)=CC[C@H]2c2ccccc2F)cc1
43 | 92.9 | Cc1ccc([C@H]2C(C(=O)O)=CC[C@@H](c3ccccc3F)N2S(=O)(=O)c2ccc(C)cc2)cc1
44 | 93.4 | Cc1ccc([C@@H]2C[C@@H](SCCC(C)C)[C@H](C(=O)O)CN2S(C)(=O)=O)cc1
45 | 40.3 | Cc1ccc([C@@H]2C[C@@H](SCc3ccccc3)[C@H](C(=O)O)CN2S(=O)(=O)c2ccc(Cl)cc2)cc1
46 | 82.4 | Cc1ccc([C@H]2C(C(=O)O)=CC[C@@H](c3cccc(C)c3)N2S(=O)(=O)c2ccc(C)cc2)cc1
47 | 90.4 | COc1ccc([C@@H]2CC=C(C(=O)O)[C@H](c3ccc(C(C)(C)C)cc3)N2S(=O)(=O)c2ccc(C)cc2)cc1OC
48 | 96.3 | CCS[C@@H]1C[C@@H](c2ccc(OC)cc2)N(S(=O)(=O)c2ccc(C)cc2)C[C@H]1C(=O)O
49 | 72.4 | CS(=O)(=O)N1[C@@H](c2cccc(Cl)c2)C(C(=O)O)=CC[C@H]1c1ccccc1
50 | 83.2 | COc1ccc([C@@H]2C[C@@H](Sc3ccc(C)cc3)[C@H](C(=O)O)CN2S(=O)(=O)c2ccc(Cl)cc2)cc1
51 | 86.8 | Cc1ccc(S(=O)(=O)N2C[C@@H](C(=O)O)[C@H](SCC(C)C)C[C@H]2c2ccc(Cl)cc2)cc1
52 | 83.7 | Cc1ccc(S(=O)(=O)N2[C@@H](c3ccc(Br)cc3)C(C(=O)O)=CC[C@H]2c2ccc(C(C)C)cc2)cc1

Row | Activity [%] | Compound
53 | 105 | COc1ccc([C@@H]2C[C@@H](Sc3ccc(C)cc3)[C@H](C(=O)O)CN2S(=O)(=O)c2ccc(C)cc2)cc1OC
54 | 75.8 | CCCCCS[C@@H]1C[C@@H](c2ccc(C)cc2)N(S(=O)(=O)c2ccc(Cl)cc2)C[C@H]1C(=O)O
55 | 89.5 | CCCS[C@@H]1C[C@@H](c2ccc(OC)cc2)N(S(=O)(=O)c2ccccc2)C[C@H]1C(=O)O
56 | 57.1 | Cc1ccc(S(=O)(=O)N2[C@@H](c3cccc(C)c3)C(C(=O)O)=CC[C@H]2c2ccc(C(C)C)cc2)cc1
57 | 98.2 | COc1ccc([C@@H]2C[C@@H](SC3CCCC3)[C@H](C(=O)O)CN2S(=O)(=O)c2ccccc2C)cc1
58 | 68.9 | CCCCCCS[C@@H]1C[C@@H](c2cccc(Br)c2)N(S(=O)(=O)c2ccc(C)cc2)C[C@H]1C(=O)O
59 | 91.1 | CCCS[C@@H]1C[C@@H](c2ccccc2F)N(S(=O)(=O)c2ccc(C)cc2)C[C@H]1C(=O)O
60 | 77 | COc1cccc([C@@H]2C[C@@H](Sc3ccc(C)cc3)[C@H](C(=O)O)CN2S(=O)(=O)c2ccc(C)cc2)c1
61 | 86 | COc1ccc([C@@H]2CC=C(C(=O)O)[C@H](c3ccc(C)cc3)N2S(=O)(=O)c2ccccc2C)cc1
62 | 70.9 | CCCCCS[C@@H]1C[C@@H](c2ccc(OC)cc2)N(S(=O)(=O)c2ccc(Cl)cc2)C[C@H]1C(=O)O
63 | 96.8 | CCCS[C@@H]1C[C@@H](c2ccc(C)cc2)N(S(C)(=O)=O)C[C@H]1C(=O)O
64 | 88.8 | Cc1ccc(S(=O)(=O)N2C[C@@H](C(=O)O)[C@H](Sc3ccc(Cl)cc3)C[C@H]2c2ccccc2F)cc1
65 | 81.3 | Cc1ccc([C@H]2C(C(=O)O)=CC[C@@H](c3cccc(F)c3)N2S(=O)(=O)c2ccc(C)cc2)cc1
66 | 56 | Cc1ccc([C@@H]2CC=C(C(=O)O)[C@H](c3cccc(C)c3)N2S(C)(=O)=O)cc1
67 | 98.1 | Cc1ccc(S(=O)(=O)N2C[C@@H](C(=O)O)[C@H](SC3CCCC3)C[C@H]2c2ccc3c(c2)OCO3)cc1
68 | 59.3 | Cc1ccc(S(=O)(=O)N2C[C@@H](C(=O)O)[C@H](SCc3ccc(C(C)(C)C)cc3)C[C@H]2c2ccc3c(c2)OCO3)cc1
69 | 88.9 | COc1ccc([C@@H]2CC=C(C(=O)O)[C@H](c3cccc(F)c3)N2S(=O)(=O)c2ccc(C)cc2)cc1OC
70 | 90.6 | CC(=O)C1=CC[C@@H](c2ccc(C)cc2)N(S(=O)(=O)c2ccc(C)cc2)C1
71 | 68.2 | Cc1ccc(S(=O)(=O)N2[C@@H](c3ccc(F)cc3)C(C(=O)O)=CC[C@H]2c2ccc3c(c2)OCO3)cc1
72 | 75.7 | CCCS[C@@H]1C[C@@H](c2ccccc2)N(S(=O)(=O)c2ccc(C)cc2)C[C@H]1C(=O)O
73 | 89.4 | CCS[C@@H]1C[C@@H](c2ccccc2F)N(S(=O)(=O)c2ccc(C)cc2)C[C@H]1C(=O)O
74 | 89.9 | Cc1ccc([C@@H]2CC=C(C(=O)O)[C@H](c3cccc(C)c3)N2S(=O)(=O)c2ccc(Cl)cc2)cc1
75 | 56.2 | COC(=O)c1ccccc1S(=O)(=O)N1[C@@H](c2cccc(Cl)c2)C(C(=O)O)=CC[C@H]1c1ccc(C)cc1
76 | 53 | COc1ccc([C@@H]2C[C@@H](SCc3ccc(C(C)(C)C)cc3)[C@H](C(=O)O)CN2S(=O)(=O)c2ccccc2)cc1
77 | 91.1 | COc1ccc([C@@H]2CC=C(C(=O)O)[C@H](c3ccc(C(C)(C)C)cc3)N2S(=O)(=O)c2ccc(C)cc2)cc1
